# Literature values in article PMC5131319, “Occurrence, temporal trends, and half-lives of perfluoroalkyl acids (PFAAs) in occupational workers in China” (Scientific Reports, 2016).
# Conditions: humans; cited from earlier work
structure (smiles),measurement,value
"O=S(=O)(O)C(F)(F)C(F)(F)C(F)(F)C(F)(F)F [PFBS, perfluorobutanesulfonate]",Half-life based on serum concentrations,26 days
